Reference: patent publication US10570179B2, “Substituted urea depsipeptide analogs as activators of the CLPP endopeptidase” (priority 2016, dated 2020)
Values after ≈ are worked out from the molar mass of the structure shown. Read-outs that look alike come from different tables or passages of the source. Numbered stars: 1 amine (or outer) side, 2 acyl side, 3 side chain; on linkers, the order of the positions; unused ones are H or OH. Bridge positions count the residues as written; N and C are the ends. Square brackets hold non-standard residues; d marks the D form. Peptide text beside a SMILES is read from it. * marks the point of attachment. X6 = O=C([C@@H]1CS(=O)(=O)CCN1[*:1])[*:2]; Phe(3-Me) = Cc1cccc(C[C@H](N)C(=O)O)c1; Pro(4S-Me) = C[C@@H]1CN[C@H](C(=O)O)C1; NH(4-Cl-2-F-phenyl) = Fc1cc(Cl)ccc1N*; Pro(4R-Me) = C[C@H]1CN[C@H](C(=O)O)C1; X1 = O=C([C@@H]1CSCCN1[*:1])[*:2]; Hyp = O=C(O)[C@@H]1C[C@@H](O)CN1; NH(4-Me-phenyl) = Cc1ccc(N*)cc1; aThr = C[C@H](O)[C@H](N)C(=O)O; Pip = O=C(O)[C@@H]1CCCCN1; 4Abz = Nc1ccc(C(=O)O)cc1; CO = O=C([*:1])[*:2]

Assays:
[1] = test system: MRSA NRS70; assay: Minimal inhibitory concentration, microbroth dilution; assay type: cell-based; settings: Staphylococcus aureus
Method in brief: (§1)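 MICs were determined by CLSI broth microdilution, using two-fold compound dilutions from a final 200 μM and about 10^5 cfu/mL inoculum. Plates were incubated aerobically at 37 °C overnight. The MIC was read visually as the lowest concentration preventing growth.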

[2] = test system: E. faecails; assay: as above; assay type: cell-based; settings: Enterococcus faecalis
Method in brief: as §1

[3] = test system: S. aureus ATCC 29213; assay: as above; assay type: cell-based; settings: Staphylococcus aureus
Method in brief: as §1

[4] = test system: S. aureus USA 300; assay: as above; assay type: cell-based; settings: Staphylococcus aureus
Method in brief: as §1

[5] = Plasma stability assay; assay type: in vitro ADME, mouse
Method: The plasma stability property of early drug discovery compounds can influence the in vivo efficacy of the test compounds/drugs. Human and/or mouse plasma degradation is determined using multiple time points to monitor the rate of disappearance of the parent compound during incubation.
Sample preparation for plasma stability was modified from Di et al. (2005) Int. J. Pharm. 297(1-2): 110-119. A set of incubation times of 0, 3, 24, and 48 hour were used. DMSO stock solutions of test compounds were prepared at 10 mM concentration. 1.8 μL of each test compound was each added directly to 1.8 mL of human/mouse plasma to get the final concentration of 10 μM. This compound/matrix was mixed and 70 μL was transferred to 8 time points plates (each in triplicate wells). For the Time 0 plate, 210 μL of cold acetonitrile with internal standard (4 μg/mL warfarin) was added to each well and no incubation needed. For other seven time points' plate, the plate was incubated at 37° C. for required time, followed by quenching of the reaction by adding 210 μL of cold acetonitrile with internal standard (4 μg/ml warfarin) to each well. All of the plates were sealed and mixed well at 600 rpm for 10 min and were centrifuged at 4000 rpm for 20 min. The supernatants (120 μL) were transferred to analytical plates for analysis by LCMS. Conditions for Waters ACQUITY-UPLC-MS-UV system was described separately. The plasma stability was evaluated via the half-life from least-squares fit of the multiple time points based on first-order kinetics.

[6] = MIC, read-out: Minimal Inhibitory Concentrations (μM) MRSA NRS70
[7] = MIC, read-out: Minimal Inhibitory Concentrations (μM) E. faecails
[8] = ATCC29213, MIC, read-out: Minimal Inhibitory Concentrations (μM) S. aureus ATCC 29213
[9] = USA300, MIC, read-out: Minimal Inhibitory Concentrations (μM) S. aureus USA 300
[10] = read-out: Minimal Inhibitory Concentrations (μM) MRSA NRS70, MIC
[11] = read-out: Minimal Inhibitory Concentrations (μM) E. faecails, MIC
[12] = ATCC29213, read-out: Minimal Inhibitory Concentrations (μM) S. aureus ATCC 29213, MIC
[13] = USA300, read-out: Minimal Inhibitory Concentrations (μM) S. aureus USA 300, MIC
[14] = plasma stability half-life, mouse plasma, 37° C.

SMILES	MIC [1, 6]	MIC [2, 7]	MIC [3, 8]	MIC [4, 9]	Mouse ([5]; mouse, 10 μM)	MIC [1, 10]	MIC [2, 11]	MIC [3, 12]	MIC [4, 13]	Mouse [5, 14]
Cc1cccc(C[C@H](NC(=O)Nc2ccc(Cl)cc2F)C(=O)N[C@@H]2C(=O)N3CCC[C@H]3C(=O)N3CCS(=O)(=O)C[C@H]3C(=O)N[C@@H](C)C(=O)N3C[C@H](C)C[C@H]3C(=O)O[C@H]2C)c1 [Compound 40, (S)-2-(3-(4-CHLORO-2-FLUOROPHENYL)UREIDO)-3-(M-TOLYL)-N-((6AS,12S,13S,15AS,17R,21S,23AR)-13,17,21-TRIMETHYL-2,2-DIOXIDO-6,11,15,20,23-PENTAOXOOCTADECAHYDRO-6H,11H,15H-DIPYRROLO[2,1-C:2′,1′-L][1,4]THIAZINO[3,4-I][1]OXA[4,7,10,13]TETRAAZACYCLOHEXADECIN-12-YL)PROPANAMIDE] ({NH(4-Cl-2-F-phenyl)-CO}-[Phe(3-Me)][aThr]P[X6]A[Pro(4R-Me)]; ester 2-C)	0.625 µM (≈ 0.546 µg/mL)	0.625 µM (≈ 0.546 µg/mL)	1.25 µM (≈ 1.09 µg/mL)	1.25 µM (≈ 1.09 µg/mL)	>50 h					
Cc1ccc(NC(=O)N[C@@H](Cc2cccc(C)c2)C(=O)N[C@@H]2C(=O)N3CCC[C@H]3C(=O)N3CCCC[C@H]3C(=O)N[C@@H](C)C(=O)N3C[C@@H](C)C[C@H]3C(=O)O[C@H]2C)cc1 [Compound 45, (S)-3-(M-TOLYL)-2-(3-(P-TOLYL)UREIDO)-N-((2S,6S,8AS,14AS,20S,21S,23AS)-2,6,21-TRIMETHYL-5,8,14,19,23-PENTAOXOOCTADECAHYDRO-1H,5H,14H,19H-PYRIDO[2,1-I]DIPYRROLO[2,1-C:2′,1′-L][1]OXA[4,7,10,13]TETRAAZACYCLOHEXADECIN-20-YL)PROPANAMIDE] ({NH(4-Me-phenyl)-CO}-[Phe(3-Me)][aThr]P[Pip]A[Pro(4S-Me)]; ester 2-C)						1.25 µM (≈ 0.982 µg/mL)	1.25 µM (≈ 0.982 µg/mL)	1.25 µM (≈ 0.982 µg/mL)	10 µM (≈ 7.86 µg/mL)	>50 h
Cc1cccc(C[C@H](NC(=O)Nc2ccc(Cl)cc2F)C(=O)N[C@@H]2C(=O)N3C[C@H](O)C[C@H]3C(=O)N3CCSC[C@H]3C(=O)N[C@@H](C)C(=O)N3C[C@H](C)C[C@H]3C(=O)O[C@H]2C)c1 [Compound 41, (S)-2-(3-(4-CHLORO-2-FLUOROPHENYL)UREIDO)-N-((6AS,8R,12S,13S,15AS,17R,21S,23AR)-8-HYDROXY-13,17,21-TRIMETHYL-6,11,15,20,23-PENTAOXOOCTADECAHYDRO-6H,11H,15H-DIPYRROLO[2,1-C:2′,1′-L][1,4]THIAZINO[3,4-I][1]OXA[4,7,10,13]TETRAAZACYCLOHEXADECIN-12-YL)-3-(M-TOLYL)PROPANAMIDE] ({NH(4-Cl-2-F-phenyl)-CO}-[Phe(3-Me)][aThr][Hyp][X1]A[Pro(4R-Me)]; ester 2-C)	0.156 µM (≈ 0.134 µg/mL)	0.625 µM (≈ 0.536 µg/mL)	0.31 µM (≈ 0.266 µg/mL)	0.31 µM (≈ 0.266 µg/mL)	>50 h					
CCOC(=O)c1ccc(NC(=O)N[C@@H](Cc2cccc(C)c2)C(=O)N[C@@H]2C(=O)N3C[C@H](O)C[C@H]3C(=O)N3CCCC[C@H]3C(=O)N[C@@H](C)C(=O)N3C[C@H](C)C[C@H]3C(=O)O[C@H]2C)cc1 [Compound 36, ETHYL 4-(3-((S)-1-(((2R,6S,8AS,14AS,16R,20S,21S,23AS)-16-HYDROXY-2,6,21-TRIMETHYL-5,8,14,19,23-PENTAOXOOCTADECAHYDRO-1H,5H,14H,19H-PYRIDO[2,1-I]DIPYRROLO[2,1-C:2′,1′-L][1]OXA[4,7,10,13]TETRAAZACYCLOHEXADECIN-20-YL)AMINO)-1-OXO-3-(M-TOLYL)PROPAN-2-YL)UREIDO)BENZOATE] ({OEt-4Abz-CO}-[Phe(3-Me)][aThr][Hyp][Pip]A[Pro(4R-Me)]; ester 2-C)						2.5 µM (≈ 2.15 µg/mL)	1.25 µM (≈ 1.07 µg/mL)	1.25 µM (≈ 1.07 µg/mL)	2.5 µM (≈ 2.15 µg/mL)	0.30 h
Cc1ccc(NC(=O)N[C@@H](Cc2cccc(C)c2)C(=O)N[C@@H]2C(=O)N3C[C@H](O)C[C@H]3C(=O)N3CCSC[C@H]3C(=O)N[C@@H](C)C(=O)N3C[C@H](C)C[C@H]3C(=O)O[C@H]2C)cc1 [Compound 42, (S)—N-((6AS,8R,12S,13S,15AS,17R,21S,23AR)-8-HYDROXY-13,17,21-TRIMETHYL-6,11,15,20,23-PENTAOXOOCTADECAHYDRO-6H,11H,15H-DIPYRROLO[2,1-C:2′,1′-L][1,4]THIAZINO[3,4-I][1]OXA[4,7,10,13]TETRAAZACYCLOHEXADECIN-12-YL)-3-(M-TOLYL)-2-(3-(P-TOLYL)UREIDO)PROPANAMIDE] ({NH(4-Me-phenyl)-CO}-[Phe(3-Me)][aThr][Hyp][X1]A[Pro(4R-Me)]; ester 2-C)						1.25 µM (≈ 1.02 µg/mL)	2.5 µM (≈ 2.05 µg/mL)	1.25 µM (≈ 1.02 µg/mL)	2.5 µM (≈ 2.05 µg/mL)	>50 h
